Read-outs that look alike come from different tables or passages of the source.
System: complex formed by the invertebrate L-quisqualate sub-type L-glutamate receptor and its ion channel
Design: species or system Schistocerca gregaria
Method: The compounds were assayed for biological activity on the isolated, retractor unguis nerve-muscle preparation of the locust Schistocerca gregaria (Usherwood, P.N.R and Machili, P. (1968) J. Exp. Biol., 49: 341.). Isolated muscle preparations were bathed continuously in standard locust saline in a bath of volume 250µl. Twitch tension recordings of the muscle were made to electrical stimulation of its motor innervation supramaximal voltage, frequency 0.1Hz).
The locust isolated retractor unguis nerve-muscle is a preparation with well characterised muscle receptors belonging to the quisqualate-sensitive class (Boden, P. et al., (1986) Brain Res., 385: 205.). This preparation has previously been employed to identify antogonists of excitatory amino acid receptors, (e.g. Bateman, A. et al., (1985) Brain Res., 339: 237 and Budd, T. et al., (1988) Brain Res., 448: 30.).
The potency of this monocylated spermine as an antagonist of the complex formed by the invertebrate L-quisqualate sub-type L-glutamate receptor and its ion channel was assayed using the electrically stimulated retractor unguis muscle of the locust (Schistocerca gregaria). Twitch amplitude was reduced (1% inhibition) from control (100%) levels at the following concentrations: […]

**Q.** With `NCCCNCCCCNCCCNC(=O)Cc1ccccc1O` [Example 1, N-(2-Hydroxyphenylacetyl)-spermine] as the molecule, how does the inhibition of twitch (1.5 x 10⁻⁴M) read?
**A.** 85%

**Q.** What about the inhibition of twitch (1.5 x 10⁻⁵M) of the same molecule?
**A.** 30%

**Q.** And the inhibition of twitch (3 x 10⁻⁴M)?
**A.** 90%

**Q.** What about the inhibition of twitch (3 x 10⁻⁵M) of the same molecule?
**A.** 30%

**Q.** And the inhibition of twitch (3 x 10⁻⁶M)?
**A.** 20%

**Q.** And the inhibition of twitch (3 x 10⁻⁷M)?
**A.** 15%

**Q.** What about the inhibition of twitch (3 x 10⁻⁸M) of the same molecule?
**A.** 10% inhibition of twitch

**Q.** Which results are given for `NCCCNCCCCNCCCNC(=O)Cc1cccc(O)c1` [Example 2, N-(3-Hydroxyphenylacetyl)-spermine]?
**A.** inhibition of twitch (3 x 10⁻⁷M): 35%; inhibition of twitch (3 x 10⁻⁸M): 30%

**Q.** How did the “Twitch amplitude was reduced from control (100%) levels” value (2.95x 10⁻⁵M) turn out when `NCCCNCCCCNCCCNC(=O)Cc1ccc(O)cc1` [Example 3, N-(4-Hydroxyphenylacetyl)-spermine] was run?
**A.** 74%

**Q.** What about the “Twitch amplitude was reduced from control (100%) levels” value (4.43x 10⁻⁵M) of the same molecule?
**A.** 91%

**Q.** And the “Twitch amplitude was reduced from control (100%) levels” value (5.9 x 10⁻⁵M)?
**A.** 96%

**Q.** And the “Twitch amplitude was reduced from control (100%) levels” value (5.9 x 10⁻⁶M)?
**A.** 25%

**Q.** What about the “Twitch amplitude was reduced from control (100%) levels” value (5.9 x 10⁻⁷M) of the same molecule?
**A.** 9%

**Q.** Which results are given for `NCCCNCCCCNCCCNC(=O)CCc1cccc(O)c1` [Example 5, N(3-Hydroxyphenylpropanoyl)-spermine]?
**A.** inhibition of twitch (1.08 x 10⁻⁶M): 15%; inhibition of twitch (1.08 x 10⁻⁷M): 10%

**Q.** `NCCCNCCCCNCCCNC(=O)C=Cc1ccc(O)cc1` [Example 6, N-(4-Hydroxycinnamoyl)-spermine] was tested. Which “Twitch amplitude was reduced from control (100%) levels” value (10⁻¹⁰M) did it give?
**A.** 4%

**Q.** What about the “Twitch amplitude was reduced from control (100%) levels” value (10⁻⁵M) of the same molecule?
**A.** 70%

**Q.** What about the “Twitch amplitude was reduced from control (100%) levels” value (10⁻⁶M) of the same molecule?
**A.** 56%

**Q.** And the “Twitch amplitude was reduced from control (100%) levels” value (10⁻⁷M)?
**A.** 33%

**Q.** And the “Twitch amplitude was reduced from control (100%) levels” value (10⁻⁸M)?
**A.** 24%

**Q.** What about the “Twitch amplitude was reduced from control (100%) levels” value (10⁻⁹M) of the same molecule?
**A.** 18%

**Q.** Which “Twitch amplitude was reduced from control levels” value (1 07 x 10⁻⁶M) does the source give for `NCCCNCCCCNCCCNC(=O)Cc1cc(O)cc(O)c1` [Example 9, N-(3,5-Dihydroxyphenylacetyl)-spermine] here?
**A.** 25%

**Q.** What about the “Twitch amplitude was reduced from control levels” value (1.07 x 10⁻⁵M) of the same molecule?
**A.** 45%

**Q.** With `NCCCNCCCCNCCCNC(=O)c1ccccc1O` [Example 10] as the molecule, how does the “Twitch amplitude was reduced from control level” value (1.09 x 10⁻⁵M) read?
**A.** approximately 25%

**Q.** `NCCCNCCCCNCCCNC(=O)c1cccc(O)c1` [Example 11, N-(3-Hydroxybenzoyl)-spermine] was tested. Which “Twitch amplitude was reduced from control levels” value (1.02 x 10⁻⁵M) did it give?
**A.** approximately 40%

**Q.** With `NCCCNCCCCNCCCNC(=O)C=Cc1cccc(O)c1` [Example 13, N-(3-Hydroxycinnamoyl)-spermine] as the molecule, how does the “Twitch amplitude was reduced from control levels” value (9.2 x 10⁻⁷M) read?
**A.** approximately 25%

**Q.** How did the “Twitch amplitude was reduced from control (100%) levels” value (1.04 x 10⁻⁴M) turn out when `NCCCNCCCNCCCNC(=O)Cc1cccc(O)c1` [Example 20, N-(3-Hydroxyphenylacetyl)-N′,N˝-bis(3-aminopropyl)-1,3-propanediamine] was run?
**A.** approximately 60%

**Q.** With `NCCCNCCCNCCCNC(=O)Cc1ccc(O)cc1` [Example 21, N-(4-Hydroxyphenylacetyl)-N′,N˝-bis(3-aminopropyl)-1,3-propanediamine] as the molecule, how does the “Twitch amplitude was reduced from control (100%) levels” value (10⁻⁴M) read?
**A.** approximately 30%

**Q.** `NCCCNCCCCNCCCNC(=O)CCc1ccc(O)cc1` [Example 22, N-(4-Hydroxyphenylpropanoyl)-spermine] was tested. Which “Twitch amplitude was reduced from control levels” value (1.45x 10^-5M) did it give?
**A.** 38%

**Q.** What about the “Twitch amplitude was reduced from control levels” value (1.45x 10^-6M) of the same molecule?
**A.** 30%

**Q.** And the “Twitch amplitude was reduced from control levels” value (2.9 x 10^-5M)?
**A.** 81%

**Q.** And the “Twitch amplitude was reduced from control levels” value (2.9 x 10^-6M)?
**A.** 38%

**Q.** And the “Twitch amplitude was reduced from control levels” value (2.9 x 10^-7M)?
**A.** 25%

**Q.** And the “Twitch amplitude was reduced from control levels” value (2.9 x 10^-8M)?
**A.** 10%

**Q.** And the “Twitch amplitude was reduced from control levels” value (7.25x 10^-5M)?
**A.** 100%

**Q.** What about the IC50 (reduction of twitch amplitude, retractor unguis muscle, read-out: IC₅₀) of the same molecule?
**A.** 6 µM
